Assay results published in a melting point compilation (Tetko et al.; mined from patent text by program, amines drawn as free bases though some values may be those of a salt).

First: CNc1nc(C(=O)O)ccc1C(=O)OC
Second: COC(=O)c1nc(C)[nH]c1C(=O)OC
The melting point of the first is higher: 152 to 153 °C for the first, 138 to 140 °C for the second.

First: Cc1cccc(C)c1NC(=O)N(Cc1ccccc1)CC1(c2ccccc2)CCCC1
Second: O=C(C#Cc1cccc(OCc2ccccc2)c1)c1ccccc1
The melting point of the first is higher: 200 to 202 °C for the first, 75 to 77 °C for the second.

Compared with `CON1CCn2c(OC(=O)C(C)(C)C)c(-c3c(C)cc(C)cc3C)c(=O)n2CC1`, `CCC(=O)c1c(-c2cc(C)c(O)c(C)c2)c(C)n2c1-c1cc(OC)c(OC)cc1CC2` is higher in melting point: 147 to 148 °C for the first, 188 to 190 °C for the second.

First: CCOC(=O)c1c(C(C)C)csc1N
Second: C=CCOC(=O)c1cnc2c(cnn2CCC(C)C)c1N
The melting point of the first is lower: 61 to 61.5 °C for the first, 124 to 126 °C for the second.

First: O=C1CSc2ccc(S(=O)(=O)Cc3c(Cl)cccc3Cl)cc2N1
Second: NS(=O)(=O)c1ccc(N2CN(c3cccc(Cl)c3)CC2=O)c(Cl)c1
The melting point of the first is higher: 244 to 246 °C for the first, 208 to 216 °C for the second.

First: N#Cc1cc(N)ccc1OC1CCCCC1
Second: COc1cccc(C23CCCC(C2)NC3=O)c1 (centres undefined)
The melting point of the first is lower: 59 °C for the first, 109 to 111 °C for the second.

First: CC(C)c1noc(-c2c(Cl)ccc(C(=O)O)c2Cl)n1
Second: C=C(Cl)CONC(=O)c1nc(-c2ccc(Cl)c(OC)c2F)cc(N)c1Cl
The melting point of the first is lower: 104 to 107 °C for the first, 146 to 148 °C for the second.

First: CN(C)CC1CCc2cc(NC(=O)c3ccc(-c4ccc(N)cc4)cc3)ccc2C1 (centres undefined)
Second: CCOC(=O)Nc1ccc2oc(-c3ccccc3)cc2c1
The melting point of the first is lower: 148 to 150 °C for the first, 164 °C for the second.

Going from `CCOC(=O)c1cc(-c2ccccc2)oc1-c1ccc(OC)c(OC)c1` to `COc1cc(C(=O)c2cccnc2)ccc1OCc1ccccc1`, the melting point rises from 68 °C to 76 °C.

First: COc1cc2ncnc(N3CCC(CN4C=CC=NS4(=O)=O)CC3)c2cc1OC
Second: COc1cc2ncc(C#N)c(Nc3cc(Cl)c(O)c(Cl)c3)c2cc1OC
The melting point of the first is lower: 173 to 174 °C for the first, over 250 °C for the second.

First: COc1cc(C=CC(=O)Nc2cnc3ccc(C)cc3c2-c2ccccc2Br)cc(OC)c1OC(C)=O
Second: CC=CC(=O)Nc1cccc(OC(=O)Nc2ccc(Cl)c(Cl)c2)c1
The melting point of the first is higher: 238 to 240 °C for the first, 193 to 194 °C for the second.

First: O=S(=O)(NCCCO)c1ccc(Nc2nccc(-c3ccc(C(F)(F)F)cc3)n2)cc1
Second: O=C(O)Cc1ccc(OCCCCc2cc(-c3ccc(C(F)(F)F)cc3)no2)cc1
The melting point of the first is higher: 204 to 205 °C for the first, 125 to 126 °C for the second.

First: O=c1oc2c(c(O)c1C(c1ccccc1)C1CC1)CCCCCC2CC1CCOC1 (centres undefined)
Second: CCOC(=O)N(C)C1CCc2c([nH]c3ccccc23)C1 (centres undefined)
The melting point of the first is lower: 80 to 84 °C for the first, 167 to 168 °C for the second.

First: O=C(NC(SC(=O)c1ccccc1)C(=O)NC(Cc1c[nH]c2ccccc12)C(=O)O)c1ccccc1 (centres undefined)
Second: O=C1C(=O)N(C(c2ccccc2)c2ccccc2)c2cccc(F)c21
The melting point of the first is higher: 188 to 191 °C for the first, 168 to 171 °C for the second.

First: CSc1nc(Cc2ccccc2[N+](=O)[O-])n[nH]1
Second: O=C(CO)Cc1ccccc1
The melting point of the first is higher: 120 to 132 °C for the first, 42 to 43 °C for the second.

First: CCOC(=O)NNC1=Nc2sc(CC)cc2C(c2ccccc2Cl)=NC1
Second: CCCc1c(C(=O)CC(C)OC)c2ccc(C(N)=O)cc2n1Cc1ccccc1Cl (centres undefined)
The melting point of the first is higher: 207 °C for the first, 155 to 157 °C for the second.

Compared with `COc1cc(C(F)(F)F)oc(=O)c1`, `COc1ccc(Cl)cc1C1(O)C(=O)Nc2ccc(C(F)(F)F)cc21` (centres undefined) is higher in melting point: 61 °C for the first, 218 to 220 °C for the second.

Compared with `N#Cc1ccc(C=Cc2ccc(-c3ccccc3)cc2)cc1`, `C=CCN(CC=C)c1ccc(C=Cc2ccc(S(C)(=O)=O)cc2)cc1` is lower in melting point: 235 to 254 °C for the first, 101 to 102 °C for the second.

First: CCCc1nc2c(N)nc3cccnc3c2n1CCCCN(OC)C(C)=O
Second: CCOC(=O)c1cn2c(cc(OC(C)C)c3ccc(Cl)cc32)n1
The melting point of the first is lower: 155 to 156 °C for the first, 187 to 189 °C for the second.

First: CC(C)(C)c1ccc(CSc2nc3cnccc3[nH]2)cc1
Second: CC(C)(C)c1ccc(OCC(=O)NCc2ccc(NS(C)(=O)=O)cc2)cc1
The melting point of the first is higher: 207 to 208 °C for the first, 163 °C for the second.

Going from `CC(C)(c1ccc(-c2nc(Nc3ccc(F)cc3)ncc2C#N)cc1)N1CCCC1` to `Fc1ccc(Cn2c(NC3CCN(CCc4cnccn4)CC3)nc3ccccc32)cc1`, the melting point rises from 124 °C to 165 °C.

Compared with `CSC(=C[N+](=O)[O-])NCCCCc1csc(N(CC(F)(F)F)C(=N)N)n1`, `NCCc1csc(N)n1` is lower in melting point: 140 to 141 °C for the first, 69 to 71 °C for the second.

First: CC(C)(C)OC(=O)Cn1c(=O)n(S(=O)(=O)c2ccc(Cl)cc2)c(=O)c2ccc(Cl)cc21
Second: CN(C)S(=O)(=O)c1cn(C)c2cc(Cl)ccc2c1=O
The melting point of the first is lower: 188 to 190 °C for the first, 207 to 209 °C for the second.

Compared with `CC(C)COC(=O)N[C@@H](Cc1ccc2ccccc2c1)C(=O)CSCc1ccco1`, `CCc1cc2c(ccc(=O)n2Cc2ccc(Oc3ccccc3CC(=O)O)cc2)c(CC)n1` is higher in melting point: 84 to 87 °C for the first, 211 to 215 °C for the second.

Compared with `CCOC(=O)c1ccc(OCc2csc3nc(C(=O)OCC)[nH]c(=O)c23)cc1`, `CCOC(=O)c1csc(-c2ccc3cc(C(=O)OCc4ccccc4)c(C45CC6CC(CC(C6)C4)C5)cc3c2)c1` is lower in melting point: 205 to 208 °C for the first, 98 to 100 °C for the second.

Compared with `C[C@H](Cn1cccn1)n1cnc2cc3c(=O)n([C@H](C)Cn4cc(Cl)cn4)cnc3cc2c1=O`, `COc1ccnc(CCc2nc3cc(-c4ccc(S(=O)(=O)N5CCN(Cc6ccccc6)CC5)cc4)cnc3[nH]2)c1` is lower in melting point: 231 to 232 °C for the first, 160 to 162 °C for the second.

First: Clc1ccc(C2OC(c3ccncc3)=Nc3ccc(Cl)cc32)cc1 (centres undefined)
Second: Clc1cccc(Nc2nccc(-c3ccncc3)n2)c1
The melting point of the first is lower: 140 to 141 °C for the first, 167 to 168 °C for the second.

First: CC(=O)N1c2ccc(O)cc2Sc2cc([N+](=O)[O-])ccc21
Second: Cc1cc(NC(=O)C(C)(O)COc2ccc(CCCl)c(F)c2)ccc1[N+](=O)[O-] (centres undefined)
The melting point of the first is higher: 202 to 205 °C for the first, 77 to 79 °C for the second.

Compared with `O=C1N[C@H](Cc2ccc(F)cc2)[C@H](c2ccc(C(F)(F)F)cc2)O1` (racemic), `BrCc1ccc2nc(-c3cccs3)ccc2c1` is lower in melting point: 160 to 161 °C for the first, 95 °C for the second.

First: N#Cc1ccc2oc(Cc3cc4cc(C#N)ccc4o3)cc2c1
Second: O=C1CCC(N2C(=O)c3ccc(CNCc4cc5ccccc5o4)cc3C2=O)C(=O)N1 (centres undefined)
The melting point of the first is higher: 173 to 174 °C for the first, 133 to 135 °C for the second.

Compared with `CNc1scc(C)c1C(=O)c1ccccc1`, `CCOC(=O)Cn1c(=O)sc2cccc(Oc3ccccc3)c21` is lower in melting point: 144 to 145 °C for the first, 96 to 99 °C for the second.

First: CC(C)(C)OC(=O)N1CCC(c2ccc(N3C[C@H](COS(C)(=O)=O)OC3=O)cc2F)CC1
Second: CC(C)(C)OC(=O)N1CCC(=O)N(CCCC=O)CC1
The melting point of the first is higher: 163 to 165 °C for the first, 86 to 87 °C for the second.

First: Cc1oc(-c2ccccc2)nc1COc1ccc(CON=C2CC(C(=O)O)c3ccccc32)cc1 (centres undefined)
Second: Cc1ccc(Cc2cnc(NCCN(Cc3ccccc3)c3ccccn3)[nH]c2=O)cn1
The melting point of the first is lower: 148 to 149 °C for the first, 178 to 182 °C for the second.

First: O=C1OCc2c1cc1ccc3c(c1c2-c1ccc2ccccc2c1)OCO3
Second: Oc1ccc2c(c1)COc1c-2cc2ccc(O)cc2c1-c1ccc(Cl)cc1
The melting point of the first is lower: 224 to 226 °C for the first, 239 to 242 °C for the second.

First: O=c1[nH]c2c(I)c(Br)c(Br)c(I)c2[nH]c1=O
Second: CCn1c(=O)[nH]c2ncn(CC)c2c1=O
The melting point of the first is higher: over 350 °C for the first, 204 to 205 °C for the second.

First: CCCCC(=O)N(C(=O)NC(=O)c1ccccc1[N+](=O)[O-])c1ccc(Oc2ncc(Cl)cn2)c(C)c1
Second: Cc1c(C(=O)c2ccc(F)cc2)c(C)n(C)c1C(=O)c1cccnc1
The melting point of the first is lower: 69 to 75 °C for the first, 85 to 88 °C for the second.

Compared with `Cc1occc1COC(C)CN(O)C(N)=O` (centres undefined), `COc1ccc(CN2CC(CO)CC2=O)cc1OC` (centres undefined) is lower in melting point: 101 to 102 °C for the first, 78 to 79 °C for the second.

First: Nc1cc(Cl)nc(C(=O)O)c1C(F)F
Second: CC(C)OC(=O)N1CCN(c2ccn3ncc(Br)c3n2)CC1
The melting point of the first is higher: 149 to 151 °C for the first, 78 to 79 °C for the second.

Compared with `C[C@]1(CN2CCC(NC(=O)Nc3ccc(C(F)(F)F)cc3)CC2)Cn2cc([N+](=O)[O-])nc2O1`, `Cn1ccnc1N1CCC(c2ccc([N+](=O)[O-])cc2)CC1` is higher in melting point: 137 to 140 °C for the first, 155 to 156 °C for the second.

First: Cc1[nH]c(=O)c(C#N)cc1-c1ccc(S(C)(=O)=O)cc1
Second: CS(=O)(=O)c1ccc(-c2cnn(CC(F)(F)F)c(=O)c2OCC2CC2)cc1
The melting point of the first is higher: 312 to 313 °C for the first, 133 to 135 °C for the second.

First: O=C1CSCC(C(=O)O)N1 (centres undefined)
Second: O=C(NC1CC1)c1cc([N+](=O)[O-])[nH]n1
The melting point of the first is lower: 152 to 153 °C for the first, 206 °C for the second.

`CN1C(=O)CCCC1(O)C=Cc1ccccc1` (centres undefined) and `CN1C(=O)CC[C@]2(C)c3ccc(-c4ccccc4Cl)cc3CC[C@@H]12` cannot be ordered by melting point: 108 to 112 °C for the first, 111 to 120 °C for the second.

First: COC(=O)C1=C(C(=O)N(C(=O)CCl)c2cc(OC)c(Cl)cc2F)CCCC1
Second: COc1cccc([C@H]2O[C@H](CC(=O)NCc3ccc(C(=O)O)o3)C(=O)N(CC(C)(C)CO)c3ccc(Cl)cc32)c1OC
The melting point of the first is lower: 109 °C for the first, 128 to 131 °C for the second.

First: CCCC1(CCC)c2cc(-c3nc4cc(C)ccc4o3)ccc2-c2cc(OC)c(-c3nc4cc(C)ccc4o3)cc21
Second: COc1cc2c(cc1C)C(CCCN1CCN(C)CC1)(c1ccccc1F)C(=O)N2S(=O)(=O)c1ccc(OC(C)C)cc1 (centres undefined)
The melting point of the first is higher: 240 to 248 °C for the first, 70 °C for the second.

First: CC(C)(C)CC(C)(C)Nc1cc(Cl)ccc1[N+](=O)[O-]
Second: COc1cc(C(=O)c2nccn2C)cc([N+](=O)[O-])c1OC
The melting point of the first is lower: 108 °C for the first, 144 to 145 °C for the second.

Compared with `O=C1COC(COc2ccccc2Cc2cccs2)CN1Cc1ccccc1` (centres undefined), `CCCN(Cc1ccc(C(=O)N2CCN(c3ccccc3)CC2)cc1)C1CCc2ncsc2C1` (centres undefined) is lower in melting point: 97 to 99 °C for the first, 70 °C for the second.

First: N#Cc1cccc(-n2cc(-c3ccccn3)cn2)n1
Second: COc1ccc2[nH]cc(-c3cc4c(-c5c(C)noc5C)ccnc4[nH]3)c2c1
The melting point of the first is lower: 260 to 261 °C for the first, 270 to 271 °C for the second.

First: CCNC1Cc2c[nH]c3ccc(OC)c(c23)C1(C)O (centres undefined)
Second: CCCCOc1cc(I)c(OCCCC)cc1I
The melting point of the first is higher: 185 to 187 °C for the first, 86 to 87.5 °C for the second.

First: CC1(C)NC(=O)N(CC(O)Cc2cc(C(C)(C)C)c(O)c(C(C)(C)C)c2)C1=O (centres undefined)
Second: CCC(=O)C1=C(O)CC(c2c(C)c([N+](=O)[O-])c(C)c([N+](=O)[O-])c2C)CC1=O (centres undefined)
The melting point of the first is lower: 175 to 176 °C for the first, 249 °C for the second.

Compound `NS(=O)(=O)c1cc2c(s1)S(=O)(=O)CC(=S)N2` has a melting point of 219 to 221 °C.
